In experiment [1] the target is LIM domain kinase 2 (Homo sapiens) (UniProt P53671). In words: Selectivity interaction (LanthaScreen Eu Kinase Binding Assay) EUB0001632a LIMK2. The conditions noted are these: at 10 µM.
Experiment [2] relates to Proto-oncogene tyrosine-protein kinase receptor Ret (Homo sapiens), P07949 [V804L]. The settings on record: at 10 µM.
Experiment [3] deals with Phosphatidylinositol 4-phosphate 3-kinase C2 domain-containing subunit beta (Homo sapiens) (UniProt O00750). In words: Selectivity interaction (KinomeScan (DiscoverX)) EUB0000666a PIK3C2B. The settings on record: at 10 µM.
For experiment [4], the target named is T1, Serine/threonine-protein kinase TNNI3K (Homo sapiens) (UniProt Q59H18).
T1 sequence (whole entry): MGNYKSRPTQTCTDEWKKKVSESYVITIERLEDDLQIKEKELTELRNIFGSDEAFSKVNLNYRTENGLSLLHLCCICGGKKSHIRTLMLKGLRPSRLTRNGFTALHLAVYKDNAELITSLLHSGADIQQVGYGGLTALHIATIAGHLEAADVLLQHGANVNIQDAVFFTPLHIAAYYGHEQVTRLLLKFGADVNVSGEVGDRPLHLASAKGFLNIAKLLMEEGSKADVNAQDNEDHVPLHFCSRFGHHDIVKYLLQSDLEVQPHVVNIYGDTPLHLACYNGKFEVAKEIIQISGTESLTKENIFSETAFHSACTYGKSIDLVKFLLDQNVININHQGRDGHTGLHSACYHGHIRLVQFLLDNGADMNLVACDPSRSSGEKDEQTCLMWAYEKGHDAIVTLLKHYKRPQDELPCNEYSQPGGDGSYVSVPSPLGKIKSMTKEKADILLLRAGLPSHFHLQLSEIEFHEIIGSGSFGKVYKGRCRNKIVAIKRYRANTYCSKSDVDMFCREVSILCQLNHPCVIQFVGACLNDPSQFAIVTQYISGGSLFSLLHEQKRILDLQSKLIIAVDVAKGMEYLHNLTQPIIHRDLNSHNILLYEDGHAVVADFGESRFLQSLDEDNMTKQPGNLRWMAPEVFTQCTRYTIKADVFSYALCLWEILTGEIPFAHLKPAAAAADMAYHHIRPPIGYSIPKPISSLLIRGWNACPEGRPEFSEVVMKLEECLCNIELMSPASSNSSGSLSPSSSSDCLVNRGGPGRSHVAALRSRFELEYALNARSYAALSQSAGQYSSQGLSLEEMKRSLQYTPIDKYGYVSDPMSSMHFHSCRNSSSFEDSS
In words: Selectivity interaction (KinomeScan (DiscoverX)) EUB0000666a TNNI3K. The settings on record: at 10 µM.

For experiment [5], the target named is Serine/threonine-protein kinase B-raf (Homo sapiens) (UniProt P15056). Nature of the experiment: Selectivity interaction (Kinase panel (DSF assay)) EUB0001558a BRAF. (In general: DSF heats the sample and reads unfolding from a dye or from intrinsic fluorescence.)
Experiment [6] has as its target Non-receptor tyrosine-protein kinase TYK2 (Homo sapiens, UniProt P29597). In words: Selectivity interaction (KinomeScan (DiscoverX)) EUB0000229b TYK2. The conditions noted are these: at 10 µM.
The target in experiment [7] is Serine/threonine-protein kinase PAK 1 (Homo sapiens) (UniProt Q13153). In words: Selectivity interaction (KinomeScan (DiscoverX)) EUB0000655a PAK1. The conditions noted are these: at 10 µM.
The target of experiment [8] is Serine/threonine-protein kinase PLK3 (Homo sapiens, UniProt Q9H4B4). Nature of the experiment: Selectivity interaction (KinomeScan (DiscoverX)) EUB0000655a PLK3. The settings on record: at 10 µM.
The target of experiment [9] is LIM domain kinase 1 (Homo sapiens) (UniProt P53667). In words: Selectivity interaction (KinomeScan (DiscoverX)) EUB0001619a LIMK1. The conditions noted are these: at 1 µM.
Experiment [10] deals with cAMP-dependent protein kinase catalytic subunit alpha (Homo sapiens, UniProt P17612). Nature of the experiment: Selectivity interaction (Kinase panel (literature)) EUB0001199aCl PRKACA. The settings on record: at 1 µM.
Experiment [11] deals with T2, Dual specificity mitogen-activated protein kinase kinase 6 (Homo sapiens) (UniProt P52564).
T2 sequence (whole entry): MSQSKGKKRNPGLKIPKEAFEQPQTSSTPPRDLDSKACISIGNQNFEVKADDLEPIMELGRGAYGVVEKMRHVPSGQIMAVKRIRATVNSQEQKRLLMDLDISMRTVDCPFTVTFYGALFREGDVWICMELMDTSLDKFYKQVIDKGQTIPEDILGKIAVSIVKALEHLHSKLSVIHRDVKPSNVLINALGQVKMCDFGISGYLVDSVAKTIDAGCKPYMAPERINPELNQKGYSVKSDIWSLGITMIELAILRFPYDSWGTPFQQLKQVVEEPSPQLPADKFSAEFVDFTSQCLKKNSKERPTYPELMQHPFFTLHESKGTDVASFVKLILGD
In words: Selectivity interaction (Kinase panel (Invitrogen)) EUB0000639a MAP2K6. The settings on record: at 200 nM.

In experiment [12] the target is Serine/threonine-protein kinase WNK2 (Homo sapiens) (UniProt Q9Y3S1). In words: Selectivity interaction (ActivX KiNativ screen (kinase selectivity in THP-1 cell lysates)) EUB0000639a WNK2. Format: subcellular. The conditions noted are these: lysate.
In experiment [13] the target is STE20-like serine/threonine-protein kinase (Homo sapiens, UniProt Q9H2G2). Nature of the experiment: Selectivity interaction (KinomeScan (DiscoverX)) EUB0001049a SLK. The settings on record: at 1 µM.
Experiment [14] has as its target Bromodomain-containing protein 4 (Homo sapiens, UniProt O60885). Nature of the experiment: Selectivity interaction (Human bromodomain panel (DSF assay)) EUB0000233b BRD4.
The target of experiment [15] is Eukaryotic translation initiation factor 2-alpha kinase 1 (Homo sapiens) (UniProt Q9BQI3). Nature of the experiment: Selectivity interaction (KinomeScan (DiscoverX)) EUB0000045b EIF2AK1.
Experiment [16] addresses Tyrosine-protein kinase Fes/Fps (Homo sapiens) (UniProt P07332). Nature of the experiment: Selectivity interaction (Upstate Kinase Profiler service (Millipore)) EUB0000056c FES. The conditions noted are these: at 1 µM.

SMILES strings stand for the structures. Bounds are passed on as bounds.

Serine/threonine-protein kinase WNK2 (Homo sapiens), sequence (Q9Y3S1 whole entry): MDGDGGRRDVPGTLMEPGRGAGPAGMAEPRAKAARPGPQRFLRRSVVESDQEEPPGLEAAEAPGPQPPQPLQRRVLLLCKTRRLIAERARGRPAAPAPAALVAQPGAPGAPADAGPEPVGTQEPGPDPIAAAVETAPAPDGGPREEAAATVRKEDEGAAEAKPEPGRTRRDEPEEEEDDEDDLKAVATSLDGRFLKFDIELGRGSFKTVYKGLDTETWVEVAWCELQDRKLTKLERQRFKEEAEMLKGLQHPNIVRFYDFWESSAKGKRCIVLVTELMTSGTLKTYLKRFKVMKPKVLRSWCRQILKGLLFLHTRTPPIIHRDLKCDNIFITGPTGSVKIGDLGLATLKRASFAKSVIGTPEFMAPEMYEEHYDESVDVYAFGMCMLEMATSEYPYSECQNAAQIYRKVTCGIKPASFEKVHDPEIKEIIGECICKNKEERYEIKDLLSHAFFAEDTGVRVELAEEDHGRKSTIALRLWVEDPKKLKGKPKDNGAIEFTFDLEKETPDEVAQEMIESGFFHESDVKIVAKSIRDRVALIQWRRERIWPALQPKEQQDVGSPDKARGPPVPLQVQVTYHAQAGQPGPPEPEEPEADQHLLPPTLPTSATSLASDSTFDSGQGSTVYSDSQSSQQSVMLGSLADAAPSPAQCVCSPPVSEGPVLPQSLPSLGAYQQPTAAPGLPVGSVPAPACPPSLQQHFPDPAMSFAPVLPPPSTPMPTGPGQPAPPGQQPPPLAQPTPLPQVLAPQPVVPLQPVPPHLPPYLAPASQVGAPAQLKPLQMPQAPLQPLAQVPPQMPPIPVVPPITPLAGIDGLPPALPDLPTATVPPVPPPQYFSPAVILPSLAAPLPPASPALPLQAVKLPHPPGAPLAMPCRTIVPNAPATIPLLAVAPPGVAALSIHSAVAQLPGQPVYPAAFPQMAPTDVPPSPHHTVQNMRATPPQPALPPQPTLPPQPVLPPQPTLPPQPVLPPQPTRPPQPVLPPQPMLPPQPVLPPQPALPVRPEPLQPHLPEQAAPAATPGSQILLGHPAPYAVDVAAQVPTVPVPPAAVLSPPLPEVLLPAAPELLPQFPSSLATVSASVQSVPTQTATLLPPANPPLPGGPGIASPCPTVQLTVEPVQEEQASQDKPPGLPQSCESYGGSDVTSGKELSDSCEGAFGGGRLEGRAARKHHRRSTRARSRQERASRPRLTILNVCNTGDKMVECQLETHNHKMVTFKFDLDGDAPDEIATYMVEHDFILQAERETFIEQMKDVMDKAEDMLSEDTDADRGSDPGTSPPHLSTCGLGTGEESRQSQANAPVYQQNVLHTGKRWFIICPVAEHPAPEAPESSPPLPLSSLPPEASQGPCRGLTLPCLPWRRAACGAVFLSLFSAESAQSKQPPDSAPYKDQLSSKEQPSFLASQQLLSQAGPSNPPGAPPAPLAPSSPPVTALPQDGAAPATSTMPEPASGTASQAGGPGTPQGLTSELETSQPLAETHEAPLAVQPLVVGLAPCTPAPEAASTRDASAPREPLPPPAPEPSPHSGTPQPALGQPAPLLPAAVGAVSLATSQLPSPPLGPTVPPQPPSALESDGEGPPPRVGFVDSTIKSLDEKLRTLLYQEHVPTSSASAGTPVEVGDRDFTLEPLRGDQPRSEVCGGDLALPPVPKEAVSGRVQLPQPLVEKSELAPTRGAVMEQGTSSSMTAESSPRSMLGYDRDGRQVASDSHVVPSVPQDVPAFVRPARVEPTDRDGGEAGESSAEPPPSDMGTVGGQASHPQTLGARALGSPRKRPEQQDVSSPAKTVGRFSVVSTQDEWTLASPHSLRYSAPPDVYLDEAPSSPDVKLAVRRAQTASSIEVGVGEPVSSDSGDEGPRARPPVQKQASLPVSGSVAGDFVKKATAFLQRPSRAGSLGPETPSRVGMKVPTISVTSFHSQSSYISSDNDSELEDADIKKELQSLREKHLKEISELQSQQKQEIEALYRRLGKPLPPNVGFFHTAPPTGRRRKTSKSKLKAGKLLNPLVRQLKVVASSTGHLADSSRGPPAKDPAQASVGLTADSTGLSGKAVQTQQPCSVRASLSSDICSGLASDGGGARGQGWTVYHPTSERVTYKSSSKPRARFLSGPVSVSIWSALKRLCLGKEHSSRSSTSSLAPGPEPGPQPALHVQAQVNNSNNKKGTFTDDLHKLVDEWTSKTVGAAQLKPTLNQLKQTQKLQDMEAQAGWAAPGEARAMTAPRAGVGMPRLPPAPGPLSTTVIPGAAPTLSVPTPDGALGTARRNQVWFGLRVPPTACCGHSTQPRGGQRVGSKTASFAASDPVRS
Eukaryotic translation initiation factor 2-alpha kinase 1 (Homo sapiens), sequence (Q9BQI3 whole entry): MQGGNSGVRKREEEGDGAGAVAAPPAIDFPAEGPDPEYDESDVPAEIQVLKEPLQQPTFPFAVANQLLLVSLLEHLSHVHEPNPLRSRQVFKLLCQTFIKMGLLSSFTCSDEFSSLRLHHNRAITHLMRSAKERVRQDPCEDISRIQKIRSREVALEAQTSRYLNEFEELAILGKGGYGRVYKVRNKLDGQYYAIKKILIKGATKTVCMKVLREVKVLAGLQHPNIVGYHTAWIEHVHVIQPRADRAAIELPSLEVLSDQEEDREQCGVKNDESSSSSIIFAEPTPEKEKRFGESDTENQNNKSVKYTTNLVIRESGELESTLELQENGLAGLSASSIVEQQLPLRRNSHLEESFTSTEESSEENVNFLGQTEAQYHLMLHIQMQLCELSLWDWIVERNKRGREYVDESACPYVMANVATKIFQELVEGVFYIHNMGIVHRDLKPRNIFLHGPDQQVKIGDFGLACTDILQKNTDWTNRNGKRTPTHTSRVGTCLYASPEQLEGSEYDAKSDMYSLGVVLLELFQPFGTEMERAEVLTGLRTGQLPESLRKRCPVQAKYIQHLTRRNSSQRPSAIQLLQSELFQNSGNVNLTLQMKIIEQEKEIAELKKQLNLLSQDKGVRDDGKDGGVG
LIM domain kinase 1 (Homo sapiens), sequence (P53667 whole entry, looked up, the tested form may be a part): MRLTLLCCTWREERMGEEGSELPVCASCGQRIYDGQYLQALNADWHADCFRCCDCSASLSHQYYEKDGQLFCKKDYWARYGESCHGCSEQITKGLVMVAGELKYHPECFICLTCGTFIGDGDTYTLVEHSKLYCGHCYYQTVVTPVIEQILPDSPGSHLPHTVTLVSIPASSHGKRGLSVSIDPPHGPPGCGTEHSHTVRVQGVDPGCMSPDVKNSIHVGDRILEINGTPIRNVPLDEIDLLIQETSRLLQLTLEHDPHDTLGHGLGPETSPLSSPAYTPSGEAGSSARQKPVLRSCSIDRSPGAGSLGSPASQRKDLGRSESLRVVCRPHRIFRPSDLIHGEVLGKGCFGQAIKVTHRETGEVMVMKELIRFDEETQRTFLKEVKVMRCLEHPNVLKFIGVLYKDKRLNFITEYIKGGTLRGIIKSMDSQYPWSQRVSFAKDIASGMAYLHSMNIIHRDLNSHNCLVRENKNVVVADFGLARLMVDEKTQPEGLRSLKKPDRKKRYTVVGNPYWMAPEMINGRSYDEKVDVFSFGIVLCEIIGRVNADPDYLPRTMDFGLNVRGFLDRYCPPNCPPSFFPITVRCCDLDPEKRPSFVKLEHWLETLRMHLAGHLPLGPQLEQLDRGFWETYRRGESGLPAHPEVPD
Proto-oncogene tyrosine-protein kinase receptor Ret (Homo sapiens), P07949 [V804L], sequence (P07949 whole entry V804L, the tested form may be a part): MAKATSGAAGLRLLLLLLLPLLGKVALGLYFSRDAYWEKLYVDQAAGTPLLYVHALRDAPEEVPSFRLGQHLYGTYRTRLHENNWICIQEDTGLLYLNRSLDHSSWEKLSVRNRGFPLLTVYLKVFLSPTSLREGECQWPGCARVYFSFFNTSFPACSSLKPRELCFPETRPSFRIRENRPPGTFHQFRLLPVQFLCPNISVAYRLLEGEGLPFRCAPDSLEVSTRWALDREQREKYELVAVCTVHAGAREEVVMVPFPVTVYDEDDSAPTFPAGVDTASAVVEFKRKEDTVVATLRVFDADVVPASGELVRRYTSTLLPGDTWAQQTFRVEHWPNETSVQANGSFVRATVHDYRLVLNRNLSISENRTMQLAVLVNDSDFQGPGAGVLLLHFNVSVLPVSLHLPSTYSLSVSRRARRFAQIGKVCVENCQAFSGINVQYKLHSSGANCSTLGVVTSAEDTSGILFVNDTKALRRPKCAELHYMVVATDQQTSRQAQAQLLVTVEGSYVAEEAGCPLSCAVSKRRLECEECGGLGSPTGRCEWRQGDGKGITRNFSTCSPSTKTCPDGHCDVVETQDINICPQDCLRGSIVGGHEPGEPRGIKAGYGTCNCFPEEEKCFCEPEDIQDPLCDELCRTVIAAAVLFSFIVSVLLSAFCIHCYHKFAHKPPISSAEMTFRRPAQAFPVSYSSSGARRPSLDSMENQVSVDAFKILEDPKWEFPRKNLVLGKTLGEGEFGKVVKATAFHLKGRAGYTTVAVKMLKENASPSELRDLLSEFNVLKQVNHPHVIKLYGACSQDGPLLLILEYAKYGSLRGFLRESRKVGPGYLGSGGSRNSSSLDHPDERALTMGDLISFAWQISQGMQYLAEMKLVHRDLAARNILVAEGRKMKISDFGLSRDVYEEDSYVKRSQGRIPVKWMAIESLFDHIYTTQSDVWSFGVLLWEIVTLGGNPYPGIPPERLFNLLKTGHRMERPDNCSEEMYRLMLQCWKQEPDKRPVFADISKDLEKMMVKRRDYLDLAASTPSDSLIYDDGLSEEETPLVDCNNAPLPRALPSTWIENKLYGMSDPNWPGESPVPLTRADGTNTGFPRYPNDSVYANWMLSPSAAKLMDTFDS

For the compound `Cn1cc(-n2cnc3c(NCc4nc5cc(Cl)c(Cl)cc5[nH]4)nc(N4CCOCC4)nc32)cn1`, in [1], the % of inhibition is -10.5%.
Consider `Cc1cc([C@@H](C)Nc2ccccc2C(=O)O)c2nc(N3CCOCC3)cc(=O)n2c1` [AZD-6482], for which the % of control in experiment [2] is 99%.
With `O=C(NOC[C@H](O)CO)c1ccc(F)c(F)c1Nc1ccc(I)cc1F`, the % of control in experiment [3] is 100%; in experiment [4], 51%.
`CC(C)(O)[C@H](F)CN1Cc2cc(NC(=O)c3cnn4cccnc34)c(N3CCOCC3)cc2C1=O`: in [5], the dTM is 0 K.
As to `COc1cc(N(C)c2ccnc3ccc(C(F)(F)F)cc23)cc(OC)c1OC`, the % binding in experiment [6] worked out at 89%.
Consider `CN(C)CCOc1ccc(-c2nc(-c3ccncc3)c(-c3ccc4c(c3)CC/C4=N\O)[nH]2)cc1`, for which the % of control was 87% in experiment [7] and 94% in experiment [8].
As for `N#Cc1cccc(-c2c[nH]c3ncnc(N4CCOCC4)c23)c1`, the % of control in [9] is 93%.
For the compound `CN1Cc2nccc(-c3cn(C)nc3-c3ccc(F)cc3)c2C1=O`, in experiment [10], the % of inhibition turned out to be 2%.
For `CC[C@@H]1[C@H](F)C(=O)N[C@@H]1COc1nccc2cc(C(N)=O)c(OC)cc12` [ZIMLOVISERTIB], the % of inhibition in [11] was 14.8%; in [12] (at 0.01 µM) it was 10.1%; in experiment [12] (at 0.04 µM) it was 23.3%; in [12] (at 0.2 µM), 9.7%; in experiment [12] (at 1 µM), 3.1%; in [12] (at 5 µM), 3%.
In turn, `COc1cc(Nc2nc(C)cc(-c3cnn4nc(OC)ccc34)n2)cc(C(F)(F)F)c1` came in with a % of control in [13] of 88%.
For the compound `CN(C)CCCOc1ccc(-c2cc(NCCCn3cccn3)nc(S(C)(=O)=O)n2)cc1`, the dTM in experiment [14] is below 2 K.
Turning to `C=CC(=O)Nc1cc(-n2c(=O)ccc3cnc4ccc(-c5ccc(NS(C)(=O)=O)cc5)cc4c32)ccc1C`, the % of control in [15] (at 1 µM) and in experiment [15] (at 10 µM) was 100% throughout.
Regarding `Cc1ccc(-c2ccc3c(ccc4sc5c(c43)NC[C@@H](C)NC5=O)n2)cn1`, the % of inhibition in experiment [16] is -3%.

The values above are taken from ChEMBL document CHEMBL5465560, “Selectivity Literature for EUbOPEN Chemogenomic Library” (2024).
